The text below walks through data of PMC8428568, “Discovery of re-purposed drugs that slow SARS-CoV-2 replication in human cells” (PLoS Pathogens, 2021).

Where two headings read alike, the source gives them in different places.

The test system of data set [1] is SARS-CoV-2-ΔOrf7a-NLuc virus. Put plainly: microbe, parasite or virus in culture. Format: cell-based. The following applies: for Mean relative luminescence (n=4): HUH7 screen; for IC50: read-out: HUH7 IC50.
Data set [2] deals with SARS-CoV-2-ΔOrf7a-NLuc virus. Description: microbe, parasite or virus in culture. It is filed as cell-based. The following applies: for activity at 10 µM: Severe acute respiratory syndrome coronavirus 2, Vero, 72 h, read-out: Mean relative luminescence (n=4); for IC50: Severe acute respiratory syndrome coronavirus 2.
For data set [3], the system named is SARS-CoV-2-ΔOrf7a-NLuc virus. Description: Post-infection treatment: Vero cells infected 24 hrs with SARS-CoV-2-ΔOrf7a-NLuc, then compound for 48 hrs, bioluminescence. It is filed as cell-based. The following applies: for Post-infection at IC50: change in replication relative to DMSO, cells infected 24 hrs, then treated 48 hrs.
The next data set deals with HUH7 cells. The following applies: HUH7 screen.
Another data set relates to recombinant NLuc. Format: biochemical. The following applies: for Relative Recombinant NLUC: recombinant NLuc activity relative to DMSO; for Reads Counts per second (read 1) / Reads Counts per second (read 4) / Reads Counts per second (read 3): recombinant NLuc; for Reads Counts per second (read 1): first read column; for Reads Counts per second (read 4): fourth read column; for Reads Counts per second (read 3): third read column.

The mark [4] stands for this setting: Severe acute respiratory syndrome coronavirus 2, Huh-7.
Where [5] appears, read: Vero cells, 10 μM, 1 = DMSO-treated infected cells.
The mark [6] stands for this setting: 1 = untreated, 0 = total inhibition.
Setting [7] is: Vero screen, relative luminescence.

For `CCN1CCN(Cc2ccc(Nc3ncc(F)c(-c4cc(F)c5nc(C)n(C(C)C)c5c4)n3)nc2)CC1` [LY2835219], the “Mean relative luminescence (n=4)” value in data set [1] was 0.07242; in data set [2] (setting [7]), 0.02684. For the same molecule, the IC50 stood at 200 nM in data set [1] (setting [4]) and 1000 nM in data set [2] (Vero cells). The PrestoBlue relative viability is listed as 0.5512 in the data set with Vero cells (setting [5]), 0.5512 in the data set with Vero cells (Vero screen) and 0.6043 in the data set on HUH7 cells. Besides, the “% activity in Vero 100PFU screen” value in data set [2] was 3.32%. Also, in data set [2] (setting [6]), the activity at 10 µM came to 2.68%. In addition, the “Post-infection at IC50” value in data set [3] is listed as -40%. Besides, the “Relative Recombinant NLUC” value in the data set with recombinant NLuc was 0.9189. The “Reads Counts per second (read 1)” value in the data set with recombinant NLuc is listed as 345999 Counts per second. Moreover, the “Reads Counts per second (read 4)” value in the data set on recombinant NLuc was 348685 Counts per second. Besides, the “Reads Counts per second (read 3)” value in the data set with recombinant NLuc stood at 345910 Counts per second.
Consider `COC(=O)C1=C(C)NC(C)=C(C(=O)OCCN2CCN(C(c3ccccc3)c3ccccc3)CC2)C1c1cccc([N+](=O)[O-])c1.Cl.Cl` (stereo not shown) [Manidipine 2HCl], for which, in data set [1], the “Mean relative luminescence (n=4)” value came out at 0.04447 and the IC50 amounted to 2500 nM. The PrestoBlue relative viability in the data set with Vero cells (setting [5]) is listed as 0.813. Further, in the data set with Vero cells (Vero screen), the PrestoBlue relative viability was 0.813. Also, the “% activity in Vero 100PFU screen” value in data set [2] is 12%. Besides, the “Mean relative luminescence (n=4)” value in data set [2] (setting [7]) is listed as 0.1096. Further, in data set [2] (setting [6]), the “Mean relative luminescence (n=4)” value was 0.1096. Further, in data set [3], the “Post-infection at IC50” value was -50%. Besides, in the data set on HUH7 cells, the PrestoBlue relative viability is recorded as 0.5726. Also, in the data set with recombinant NLuc, the “Relative Recombinant NLUC” value worked out at 0.6382, the “Reads Counts per second (read 1)” value was determined as 242466 Counts per second, the “Reads Counts per second (read 4)” value amounted to 239469 Counts per second and the “Reads Counts per second (read 3)” value stood at 242968 Counts per second.
For the molecule `COC(=O)C1=C(C)NC(C)=C(C(=O)OCCN2CCN(C(c3ccccc3)c3ccccc3)CC2)C1c1cccc([N+](=O)[O-])c1` (stereo not shown) [Manidipine], the “Mean relative luminescence (n=4)” value in data set [1] amounted to 0.1; in data set [2] (setting [7]) it was 0.1086. The IC50 in data set [1] (setting [4]) came to 2000 nM; in data set [2] (Vero cells), 7500 nM. The PrestoBlue relative viability in the data set with Vero cells (setting [5]) stood at 1.036; with Vero cells (Vero screen), 1.036; in the data set with HUH7 cells, 0.5396. Moreover, the “% activity in Vero 100PFU screen” value in data set [2] is 12%. Moreover, the activity at 10 µM in data set [2] (setting [6]) amounted to 10.9%. Also, the “Post-infection at IC50” value in data set [3] is reported as -50%. In the data set with recombinant NLuc, the “Relative Recombinant NLUC” value was 0.6615. Further, the “Reads Counts per second (read 1)” value in the data set with recombinant NLuc was 249924 Counts per second. For the same molecule, the “Reads Counts per second (read 4)” value in the data set on recombinant NLuc turned out to be 251205 Counts per second. Also, the “Reads Counts per second (read 3)” value in the data set on recombinant NLuc stood at 250350 Counts per second.
On to `Cc1[nH]c2ccccc2c1CCNCc1ccc(/C=C/C(=O)NO)cc1` [Panobinostat], for which, in data set [1], the “effect on virus replication” value is given as “completely blocked replication of SARS-CoV-2 at all doses tested”. The “Mean relative luminescence (n=4)” value in data set [1] amounted to 0.05897; in data set [2] (setting [7]) it was 0.01867. Further, the IC50 in data set [1] (setting [4]) and in data set [2] (Vero cells) was less than 200 nM each time. In addition, the figures for the PrestoBlue relative viability with Vero cells (setting [5]), in the data set with Vero cells (Vero screen) and in the data set with HUH7 cells were 0.6021, 0.6021 and 0.753, respectively. Moreover, the “% activity in Vero 100PFU screen” value in data set [2] was found to be 3.68%. Further, the activity at 10 µM in data set [2] (setting [6]) turned out to be 1.87%. Also, the “effect on replication in cells already infected” value in data set [3] (Vero cells infected 24 hrs then treated 48 hrs) is recorded as “a more modest effect on replication”. In data set [3], the “Post-infection at IC50” value is given as -25%. The “Relative Recombinant NLUC” value with recombinant NLuc was 0.8963. For the same molecule, the “Reads Counts per second (read 1)” value in the data set with recombinant NLuc is on record as 330994 Counts per second. In addition, the “Reads Counts per second (read 4)” value in the data set with recombinant NLuc was found to be 341728 Counts per second. In the data set on recombinant NLuc, the “Reads Counts per second (read 3)” value worked out at 343634 Counts per second.
Consider `C=C1CC[C@H](O)C/C1=C/C=C1\CCC[C@]2(C)[C@@H]([C@H](C)CCCC(C)C)CC[C@@H]12` [Vitamin D3], for which the “suppression of SARS-CoV-2 replication” value in data set [1] is listed as no less than 85%. Moreover, the “Mean relative luminescence (n=4)” value in data set [1] is 0.02567; in data set [2] (setting [7]), 0.09678. Moreover, the IC50 in data set [1] (setting [4]) is 3000 nM; in data set [2] (Vero cells) it was 10000 nM. The PrestoBlue relative viability came out at 1.049 with Vero cells (setting [5]), 1.049 in the data set with Vero cells (Vero screen) and 0.6418 in the data set on HUH7 cells. In addition, the “% activity in Vero 100PFU screen” value in data set [2] worked out at 12%. The activity at 10 µM in data set [2] (setting [6]) is 9.68%. The “reduction of virus replication” value in data set [2] (Vero cells, 100PFU screen, 10 μM) was no less than 85%. Besides, the “Post-infection at IC50” value in data set [3] is -30%. The “Relative Recombinant NLUC” value with recombinant NLuc came out at 0.9682. Besides, the “Reads Counts per second (read 1)” value in the data set with recombinant NLuc amounted to 370629 Counts per second. For the same molecule, the “Reads Counts per second (read 4)” value in the data set on recombinant NLuc worked out at 364312 Counts per second. For the same molecule, the “Reads Counts per second (read 3)” value in the data set on recombinant NLuc worked out at 360711 Counts per second.

Broadly, the IC50 is the concentration at which inhibition is half-maximal.
